Laboratory results as given in patent US20240000827A1, “COMPOSITIONS COMPRISING METHYL CYCLODEXTRINS FOR THE TREATMENT AND/OR PREVENTION OF HEPATIC STEATOSIS” (ROQUETTE FRERES, priority 2020, published 2024).

Legend:
Format in all cases: in vivo, Golden Syrian hamster
[1] = Example 2 preventive effect model: body weight and organ weights; details: hypercholesterol diet (2.5% cholesterol) + 3% by weight cyclodextrin in feed, end of 42 days, N=10
Procedure: (§1) Male LVG golden Syrian hamsters were used for the studies below. The base feed consisted of the food AO4C sold by the company SAFE diet. In the hypercholesterol diets, cholesterol was added (provided by MP Biomedicals)
(§2) Different cyclodextrins were tested • firstly, hydroxypropyl-β-cyclodextrin (HPBCD) sold by the Applicant under the name “KLEPTOSE® HPB” (oral grade); • secondly, methyl-β-cyclodextrin (MCD) “KLEPTOSE® CRYSMEB”, owned by the Applicant.
(§3) In this study, 40 Golden Syrian origin LVG hamsters were divided into 4 groups of 10 and subjected for 6 weeks to the following diets: • “Control” group: normal diet • “Control HC” group: hypercholesterol diet (containing 2.5% by weight of cholesterol) • “HC+Crysmeb” group: hypercholesterol diet (containing 2.5% by weight of cholesterol)+3% by weight of Crysmeb (MCD) • “HC+HPBCD” group: hypercholesterol diet (containing 2.5% by weight of cholesterol)+3% by weight of HPBCD.
At the end of 42 days of study, the animals were sacrificed and the weight of the various organs was measured.

[2] = Example 2 preventive effect model: plasma triglyceride levels
Procedure: as §1, §2, §3

[3] = system: Golden Syrian origin LVG hamsters; test: Example 2 preventive effect model: biochemical data measured in the liver (lipid storage); details: end of the 42 days of treatment, HC diet + 3% cyclodextrin
Procedure: as §1, §2, §3
Table 3 provides the biochemical data measured in the liver of the animals at the end of the 42 days of treatment.

[4] = system: genes involved in de novo lipodogenesis, de novo cholesterol synthesis and cholesterol removal; test: Example 2: messenger RNA expressed in the liver; details: liver mRNA at end of study
Procedure: as §1, §2, §3
The levels of expression of different genes involved in de novo lipodogenesis (FIG. 3) and in de novo cholesterol synthesis (FIG. 5) and cholesterol removal (FIG. 6) were measured in the liver at the end of the study, in the 4 groups of animals.

CC(O)COC[C@H]1O[C@@H]2O[C@H]3[C@H](O)[C@@H](O)[C@@H](O[C@H]4[C@H](O)[C@@H](O)[C@@H](O[C@H]5[C@H](O)[C@@H](O)[C@@H](O[C@H]6[C@H](O)[C@@H](O)[C@@H](O[C@H]7[C@H](O)[C@@H](O)[C@@H](O[C@H]8[C@H](O)[C@@H](O)[C@@H](O[C@H]1[C@H](O)[C@H]2O)O[C@@H]8COCC(C)O)O[C@@H]7COCC(C)O)O[C@@H]6COCC(C)O)O[C@@H]5COCC(C)O)O[C@@H]4COCC(C)O)O[C@@H]3COCC(C)O (stereo partly drawn) [HPBCD, hydroxypropyl-β-cyclodextrin]
weight of the adipose tissue of epididymis (Average) [1]: 1.4
weight of the liver (Average) [1]: 4.5
plasma triglyceride level TG D0 (Average) ([2]; day 0 (beginning of study), HC diet + 3% cyclodextrin): 3.03
plasma triglyceride level TG D14 (Average) ([2]; day 14, HC diet + 3% cyclodextrin): 1.28
plasma triglyceride level TG D28 (Average) ([2]; day 28, HC diet + 3% cyclodextrin): 1.23
plasma triglyceride level TG D43 (Average) ([2]; day 43 (end of study), HC diet + 3% cyclodextrin): 1.58
% lipids (g of lipid in liver/animal) (Average) [3]: 1.04 g of lipid in liver/animal
% lipids (g/100 g of liver) D0 (Average) [3]: 23.02 g/100 g of liver
CHOL (mg of chol in liver/animal) (Average) [3]: 154.19 mg of chol in liver/animal
CHOL (mg/g liver) (Average) [3]: 32.98 mg/g liver
TG (mg of TG in liver/animal) (Average) [3]: 92.12 mg of TG in liver/animal
TG (mg/g liver) (Average) [3]: 22.73 mg/g liver
expression of genes involved in de novo lipogenesis (FAS, ACC, SCD1, SREBP1) ([4]; FIG. 3): inhibition of the expression of the SCD1 and ACC genes
expression of genes involved in de novo cholesterol synthesis (SREB2, CYP51a1, HMGCR) ([4]; FIG. 5): little effect
